Data: PubChem BioAssay AID1963975 (Molecular Pharmacology Branch, DTP, NCI, 2024)
pIC50: −log10 of the molar value.

Test system: 624824-186-R-J2-PDC multicell spheroids, viability
Test: Anticancer human tumor 624824-186-R-J2-PDC patient-derived colon adenocarcinoma cell line growth inhibition [PI3K]
Settings: for viability, T/C: stronger effect = lower value
Description: Combinatorial screen of targeted agents with the PI3K inhibitors inavolisib, alpelisib, duvelisib, and copanlisib in multi-cell type tumor spheroids
A high-throughput screen of multi-cell type tumor spheroids was designed to identify active combinations of targeted small molecules and PI3K pathway inhibitors. Complex spheroids include a stromal component modeled by human endothelial cells (HUVEC) and fibroblasts modeled by human mesenchymal stem cells (MSCs). The concentration ranges selected for each drug and investigational agent were based upon clinically achievable concentrations if the clinical Cmax of the agent was known.
Compounds. The drugs and investigational agents: inavolisib (NSC800729), alpelisib (NSC765974), duvelisib (NSC772469), copanlisib (NSC816437), ipatasertib (NSC767898), afuresertib (NSC778305), talazoparib (NSC767125), sapanisertib (NSC764658), selumetinib (NSC741078), tovorafenib (DAY101, NSC766906), vemurafenib (NSC761431), ravoxertinib (NSC781343), sotorasib (NSC818433), MRTX1133 (NSC 836407), abemaciclib (NSC 768073), palbociclib (NSC758247), venetoclax (NSC 766270), SY5609 (NSC837396), enzalutamide (NSC755605), and darolutamide (NSC825331), were obtained from the National Cancer Institute (NCI) Developmental Therapeutics Program Chemical Repository. The FDA-approved anticancer drug set is available from the NCI Developmental Therapeutics Program. […] The stock solutions were prepared in dimethyl sulfoxide (DMSO, Sigma-Aldrich, St. Louis, MO, cat. D2650) at 800-fold the tested concentration and stored at -70 degrees C prior to their use. All drugs and investigational agents were tested over a range starting from a high concentration at or near the clinical Cmax and decreasing in half-log increments. If the clinical Cmax for an agent had not been determined, the highest concentration tested was 10 microM.
Cell Culture. All cells were maintained in an incubator at 37 degrees C and 5% CO2 with 95% humidity. The PDC lines were cultured according to standard operating procedures established by the NCI PDMR (https://pdmr.cancer.gov/sops/default.htm). All PDCs were thawed and cultured in Matrigel-coated flasks prepared with a working solution of 1X Ham's F-12 nutrient mix, without supplementation (Invitrogen, Waltham, MA, cat. 11765054), 100 U/mL penicillin-streptomycin (Invitrogen, cat. 15140122), and 2.5% Matrigel (Corning Inc., Corning, NY, cat. 354248) for the first three passages. The 354836-022-R-J1-PDC, 475296-252-R-J1-PDC, and 997726-040-R-J2-PDC lines were cultured in 6A media, which includes advanced DMEM/F-12 (Thermo Fisher Scientific, cat. 12634028), 10 mM HEPES (Thermo Fisher Scientific, cat. 15630080), 1X GlutaMAX supplement (Thermo Fisher Scientific, cat. 35050061), 0.1 mg/mL primocin (InvivoGen, San Diego, CA, cat. ant-pm-2), 10% defined fetal bovine serum, heat inactivated (HyClone Laboratories Inc., Logan, UT, cat. SH30070.03HI), 50% L-WRN conditioned media (ATCC, cat. CRL-3276), 1.25 mM N-Acetyl-L-cysteine (Sigma-Aldrich, cat. A9165), 10 mM nicotinamide (Sigma-Aldrich, cat. N0636), 1X B-27 supplement (Thermo Fisher Scientific, cat. 17504044), 1X N-2 supplement (Thermo Fisher Scientific, cat. 17502048), and 10 microM Y-27632 dihydrochloride (Tocris Bioscience, Bristol, United Kingdom, cat. 1254). The 624824-186-R-J2-PDC line was cultured in 6C/Colon 1B media, which includes all 6A media components plus 50 ng/mL human EGF recombinant protein (Thermo Fisher Scientific, cat. PHG0311). […]

[1] = curve of first compound, second compound 0.00316 µM
[2] = curve of first compound, second compound 0.01 µM
[3] = curve of first compound, second compound 0.0316 µM
[4] = curve of first compound, second compound 0.1 µM
[5] = curve of first compound, second compound 0.316 µM
[6] = curve of first compound, second compound 1 µM
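Note: spheroids exposed to agents for 7 days before viability read.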
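Throughout, for viability, T/C: 100% = DMSO vehicle treated spheroids.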

In the case of `Cn1cnc2c(F)c(Nc3ccc(Br)cc3Cl)c(C(=O)NOCCO)cc21` + COc1c(OCCCN2CCOCC2)ccc2c3n(c(=NC(=O)c4cnc(N)nc4)nc12)CCN3, the pIC50 [1] was < 5.52, the pIC50 [2] was < 5.52 and the pIC50 [3] was 6.61. For the same compound, the pIC50 [4] was 7.42, the pIC50 [5] was > 8.02 and the pIC50 [6] was > 8.02. It also gave a viability, T/C (second compound 0.00316 µM, first compound 0.00949 µM) of 86%, a viability, T/C (second compound 0.00316 µM, first compound 0.03 µM) of 74.6% and a viability, T/C (second compound 0.00316 µM, first compound 0.0949 µM) of 64.4%. The viability, T/C (second compound 0.00316 µM, first compound 0.3 µM) was 68.7%, the viability, T/C (second compound 0.00316 µM, first compound 0.949 µM) was 72.8% and the viability, T/C (second compound 0.00316 µM, first compound 3 µM) was 63.1%. The viability, T/C (second compound 0.01 µM, first compound 0.00949 µM) was 79.3%, the viability, T/C (second compound 0.01 µM, first compound 0.03 µM) was 75.7% and the viability, T/C (second compound 0.01 µM, first compound 0.0949 µM) was 66.5%. The viability, T/C (second compound 0.01 µM, first compound 0.3 µM) was 62.6%, the viability, T/C (second compound 0.01 µM, first compound 0.949 µM) was 62.8% and the viability, T/C (second compound 0.01 µM, first compound 3 µM) was 51.4%. The viability, T/C (second compound 0.0316 µM, first compound 0.00949 µM) was 70.8%, the viability, T/C (second compound 0.0316 µM, first compound 0.03 µM) was 59.2% and the viability, T/C (second compound 0.0316 µM, first compound 0.0949 µM) was 53%. It also gave a viability, T/C (second compound 0.0316 µM, first compound 0.3 µM) of 51.5%, a viability, T/C (second compound 0.0316 µM, first compound 0.949 µM) of 42.4% and a viability, T/C (second compound 0.0316 µM, first compound 3 µM) of 28.5%. For the same compound, the viability, T/C (second compound 0.1 µM, first compound 0.00949 µM) was 60%, the viability, T/C (second compound 0.1 µM, first compound 0.03 µM) was 54.6% and the viability, T/C (second compound 0.1 µM, first compound 0.0949 µM) was 36%. It also gave a viability, T/C (second compound 0.1 µM, first compound 0.3 µM) of 37.4%, a viability, T/C (second compound 0.1 µM, first compound 0.949 µM) of 31.4% and a viability, T/C (second compound 0.1 µM, first compound 3 µM) of 15.3%. It also gave a viability, T/C (second compound 0.316 µM, first compound 0.00949 µM) of 50.7%, a viability, T/C (second compound 0.316 µM, first compound 0.03 µM) of 38.9% and a viability, T/C (second compound 0.316 µM, first compound 0.0949 µM) of 39.9%. It also gave a viability, T/C (second compound 0.316 µM, first compound 0.3 µM) of 28.3%, a viability, T/C (second compound 0.316 µM, first compound 0.949 µM) of 18.9% and a viability, T/C (second compound 0.316 µM, first compound 3 µM) of 2.2%. It also gave a viability, T/C (second compound 1 µM, first compound 0.00949 µM) of 49.1%, a viability, T/C (second compound 1 µM, first compound 0.03 µM) of 39.7% and a viability, T/C (second compound 1 µM, first compound 0.0949 µM) of 33.5%. It also gave a viability, T/C (second compound 1 µM, first compound 0.3 µM) of 26.4%, a viability, T/C (second compound 1 µM, first compound 0.949 µM) of 11.1% and a viability, T/C (second compound 1 µM, first compound 3 µM) of 1.13%.

For `CC(Cn1ccc(-c2ccc(C#N)c(Cl)c2)n1)NC(=O)c1cc(C(C)O)[nH]n1` (configuration not stated) + COc1c(OCCCN2CCOCC2)ccc2c3n(c(=NC(=O)c4cnc(N)nc4)nc12)CCN3, the pIC50 [1] was < 5.00, the pIC50 [2] was < 5.00 and the pIC50 [3] was < 5.00. For the same compound, the pIC50 [4] was < 5.00, the pIC50 [5] was < 5.00 and the pIC50 [6] was < 5.00. The viability, T/C (second compound 0.00316 µM, first compound 0.0316 µM) was 86.3%, the viability, T/C (second compound 0.00316 µM, first compound 0.1 µM) was 79% and the viability, T/C (second compound 0.00316 µM, first compound 0.316 µM) was 106%. The viability, T/C (second compound 0.00316 µM, first compound 1 µM) was 98.5%, the viability, T/C (second compound 0.00316 µM, first compound 3.16 µM) was 71.5% and the viability, T/C (second compound 0.00316 µM, first compound 10 µM) was 117%. For the same compound, the viability, T/C (second compound 0.01 µM, first compound 0.0316 µM) was 87.1%, the viability, T/C (second compound 0.01 µM, first compound 0.1 µM) was 89.7% and the viability, T/C (second compound 0.01 µM, first compound 0.316 µM) was 98%. It also gave a viability, T/C (second compound 0.01 µM, first compound 1 µM) of 84.8%, a viability, T/C (second compound 0.01 µM, first compound 3.16 µM) of 99.6% and a viability, T/C (second compound 0.01 µM, first compound 10 µM) of 114%. It also gave a viability, T/C (second compound 0.0316 µM, first compound 0.0316 µM) of 102%, a viability, T/C (second compound 0.0316 µM, first compound 0.1 µM) of 88.1% and a viability, T/C (second compound 0.0316 µM, first compound 0.316 µM) of 90.7%. The viability, T/C (second compound 0.0316 µM, first compound 1 µM) was 84.5%, the viability, T/C (second compound 0.0316 µM, first compound 3.16 µM) was 92% and the viability, T/C (second compound 0.0316 µM, first compound 10 µM) was 97.2%. It also gave a viability, T/C (second compound 0.1 µM, first compound 0.0316 µM) of 76.9%, a viability, T/C (second compound 0.1 µM, first compound 0.1 µM) of 73.2% and a viability, T/C (second compound 0.1 µM, first compound 0.316 µM) of 71.6%. It also gave a viability, T/C (second compound 0.1 µM, first compound 1 µM) of 76.6%, a viability, T/C (second compound 0.1 µM, first compound 3.16 µM) of 85.1% and a viability, T/C (second compound 0.1 µM, first compound 10 µM) of 80%. The viability, T/C (second compound 0.316 µM, first compound 0.0316 µM) was 61.4%, the viability, T/C (second compound 0.316 µM, first compound 0.1 µM) was 70.2% and the viability, T/C (second compound 0.316 µM, first compound 0.316 µM) was 55.3%. The viability, T/C (second compound 0.316 µM, first compound 1 µM) was 62.2%, the viability, T/C (second compound 0.316 µM, first compound 3.16 µM) was 68.1% and the viability, T/C (second compound 0.316 µM, first compound 10 µM) was 63.8%. For the same compound, the viability, T/C (second compound 1 µM, first compound 0.0316 µM) was 63%, the viability, T/C (second compound 1 µM, first compound 0.1 µM) was 58.6% and the viability, T/C (second compound 1 µM, first compound 0.316 µM) was 62.7%. For the same compound, the viability, T/C (second compound 1 µM, first compound 1 µM) was 63.6%, the viability, T/C (second compound 1 µM, first compound 3.16 µM) was 63.4% and the viability, T/C (second compound 1 µM, first compound 10 µM) was 59%.

With `CC(Nc1ncnc2nc[nH]c12)c1cc2cccc(Cl)c2c(=O)n1-c1ccccc1` (configuration not stated) the viability, T/C (compound 0.316 µM) was 91.6% [middle of 8 runs], the viability, T/C (compound 1 µM) was 91.4% [middle of 8 runs] and the pIC50 (compound alone, run of 06/13/2023) was < 5.00.
